A short description of test [1]: Antioxidant activity assessed as DPPH radical scavenging activity after 30 mins. The class given is functional. A general note: The DPPH test is a chemical assay of radical scavenging.
In test [2] the test system is BV-2. The experiment in a line: Antineuroinflammatory activity in mouse BV2 cells assessed as inhibition of LPS-induced NO production incubated for 24 hrs by Griess assay. The class given is functional, cell-based. The settings on record: BV-2, 24 h.

For 25 molecules, EC50 and IC50 results are on record in ChEMBL document CHEMBL4610075, “Isolation, Absolute Configuration, and Biological Activities of Chebulic Acid and Brevifolincarboxylic Acid Derivatives from Euphorbia hirta” (J Nat Prod, 2020).

Broadly, the EC50 is the concentration that produces a half-maximal response. One may read the IC50 as the concentration needed to halve the response being measured.

As to `O=C1C[C@H](C(=O)O)c2c1oc(=O)c1cc(O)c(O)c(O)c21`, the EC50 in test [1] came out at 3 µM.
Consider `COC(=O)[C@H]1CC(=O)c2oc(=O)c3cc(O)c(O)c(O)c3c21`, for which the EC50 in test [1] came to 6 µM.
For `CCOC(=O)/C=C(/C(=O)O)[C@H]1c2c(cc(O)c(O)c2O)C(=O)O[C@@H]1C(=O)OCC`, in test [1], the EC50 was 8.1 µM.
The same measure, in the same setting: to `O=C(O)Cc1c2c3c(cc(O)c(O)c3oc1=O)C(=O)OC2` belongs 4.7 µM; to `CCOC(=O)[C@H]1OC(=O)c2cc(O)c(O)c(O)c2[C@@H]1[C@@H](CC(=O)O)C(=O)OCC`, 8.1 µM; to `CCOC(=O)/C=C(/C(=O)OCC)[C@H]1c2c(cc(O)c(O)c2O)C(=O)O[C@@H]1C(=O)OC`, 4.4 µM.
The same measure, in the same setting: next, `CCOC(=O)C[C@@H](C(=O)OCC)[C@H]1c2c(cc(O)c(O)c2O)C(=O)O[C@@H]1C(=O)OCC`: 6.8 µM; `CCOC(=O)/C=C(/C(=O)OC)[C@H]1c2c(cc(O)c(O)c2O)C(=O)O[C@@H]1C(=O)OCC`: 6 µM; `CCOC(=O)/C=C(/C(=O)OCC)[C@H]1c2c(cc(O)c(O)c2O)C(=O)O[C@@H]1C(=O)OCC`: 2.2 µM.
Same read-out and setting: to `CCOC(=O)/C=C(/C(=O)OCC)[C@H]1c2c(cc(O)c(O)c2O)C(=O)O[C@@H]1C(=O)O` belongs 5.4 µM.
Regarding `CCOC(=O)[C@H]1CC(=O)c2oc(=O)c3cc(O)c(O)c(O)c3c21`, in test [2], the IC50 was found to be 30.5 µM. Besides, the half-maximal effective concentration (EC50) in test [1] worked out at 6.7 µM.
As for `COC(=O)Cc1c2c3c(cc(O)c(O)c3oc1=O)C(=O)OC2`, in test [1], the EC50 is 8 µM.
As for `CCOC(=O)[C@H]1CC(=O)c2c1c1c(O)c(O)c(O)cc1c(=O)n2CCCC(=O)OC`, in test [1], the concentration for a half-maximal effect (EC50) was 6.7 µM.
With `CCOC(=O)C[C@@H](C(=O)O)[C@H]1c2c(cc(O)c(O)c2O)C(=O)O[C@@H]1C(=O)OCC`, in test [1], the EC50 worked out at 15.8 µM.
With `CCOC(=O)Cc1c2c3c(cc(O)c(O)c3oc1=O)C(=O)OC2`, in test [1], the half-maximal effective concentration (EC50) is 2.2 µM.
Consider `CCOC(=O)/C(=C/C(=O)O)[C@H]1c2c(cc(O)c(O)c2O)C(=O)O[C@@H]1C(=O)OCC`, for which, in test [1], the EC50 is 10.8 µM.
`O=C1CCc2c1oc(=O)c1cc(O)c(O)c(O)c21`: in test [2], the IC50 turned out to be 27 µM. Also, the EC50 in test [1] was found to be 7.6 µM.
As to `CCOC(=O)Cc1c2c3c(cc(O)c(O)c3oc1=O)C(=O)OC2C(=O)OCC` (racemic), in test [1], the EC50 amounted to 4.2 µM.
Same read-out and setting: next, `CCOC(=O)C1(OCC)CC(=O)c2oc(=O)c3cc(O)c(O)c(O)c3c21` (racemic): 4 µM; `COC(=O)C1OC(=O)c2cc(O)c(O)c3oc(=O)c(CC(=O)O)c1c23` (racemic): 7.7 µM.
Regarding `CCOC(=O)C1OC(=O)c2cc(O)c(O)c3oc(=O)c(CC(=O)O)c1c23` (racemic), the EC50 in test [1] was determined as 9.9 µM.
`CCOC(=O)Cc1c2c3c(cc(O)c(O)c3oc1=O)C(=O)C2(O)C(=O)OCC` (racemic): in test [2], the IC50 came to 31.5 µM. Further, the EC50 in test [1] came out at 5.3 µM.
As for `CCOC(=O)Cc1c2c3c(cc(O)c(O)c3oc1=O)C(=O)OC2C(=O)OC` (racemic), in test [1], the EC50 worked out at 6.5 µM.
With `O=C1O[C@H]([C@@H](O)CO)C(O)=C1O` [ASCORBIC ACID], the EC50 in test [1] was 9.2 µM.
For the molecule `CN(C)c1ccc(O)c2c1C[C@H]1C[C@H]3[C@H](N(C)C)C(O)=C(C(N)=O)C(=O)[C@@]3(O)C(O)=C1C2=O` [MINOCYCLINE], the IC50 in test [2] came out at 18.5 µM.
